In the NIST ThermoML archive (doi:10.1016/j.jct.2016.10.023):
Numbers after ± are expanded uncertainties.

Test: xn = mol fraction of the nth substance listed
Conditions: Constant-volume piezometry

CCCCC [pentane] + CCCO
Conditions	mass density [kg/m3]
533.15 K, 7168 kPa, Fluid (supercritical or subcritical phases), x1 = 0.8	234.59 ± 1.2
533.15 K, 7364 kPa, Fluid (supercritical or subcritical phases), x1 = 0.8	245.22 ± 1.2
533.15 K, 7629 kPa, Fluid (supercritical or subcritical phases), x1 = 0.2	378.44 ± 1.9
533.15 K, 7638 kPa, Fluid (supercritical or subcritical phases), x1 = 0.8	258.44 ± 1.3
533.15 K, 7786 kPa, Fluid (supercritical or subcritical phases), x1 = 0.2	383.24 ± 1.9
533.15 K, 7963 kPa, Fluid (supercritical or subcritical phases), x1 = 0.8	272.4 ± 1.4
533.15 K, 8071 kPa, Fluid (supercritical or subcritical phases), x1 = 0.9	281.87 ± 1.4
533.15 K, 8098 kPa, Fluid (supercritical or subcritical phases), x1 = 0.2	391.08 ± 2
533.15 K, 8423 kPa, Fluid (supercritical or subcritical phases), x1 = 0.8	288.24 ± 1.4
533.15 K, 8569 kPa, Fluid (supercritical or subcritical phases), x1 = 0.9	301.54 ± 1.5
533.15 K, 8748 kPa, Fluid (supercritical or subcritical phases), x1 = 0.8	299.05 ± 1.5
533.15 K, 9002 kPa, Fluid (supercritical or subcritical phases), x1 = 0.9	312.17 ± 1.6
533.15 K, 9374 kPa, Fluid (supercritical or subcritical phases), x1 = 0.2	418.49 ± 2.1
533.15 K, 9413 kPa, Fluid (supercritical or subcritical phases), x1 = 0.8	315.21 ± 1.6
533.15 K, 10061 kPa, Fluid (supercritical or subcritical phases), x1 = 0.9	333.87 ± 1.7
533.15 K, 10217 kPa, Fluid (supercritical or subcritical phases), x1 = 0.8	333.69 ± 1.7
533.15 K, 10835 kPa, Fluid (supercritical or subcritical phases), x1 = 0.8	345.21 ± 1.7
533.15 K, 11530 kPa, Fluid (supercritical or subcritical phases), x1 = 0.9	353.95 ± 1.8
533.15 K, 12119 kPa, Fluid (supercritical or subcritical phases), x1 = 0.8	361.76 ± 1.8
533.15 K, 13530 kPa, Fluid (supercritical or subcritical phases), x1 = 0.2	470.12 ± 2.4
533.15 K, 17294 kPa, Fluid (supercritical or subcritical phases), x1 = 0.9	407.1 ± 2
533.15 K, 18236 kPa, Fluid (supercritical or subcritical phases), x1 = 0.8	418.01 ± 2.1
533.15 K, 19667 kPa, Fluid (supercritical or subcritical phases), x1 = 0.2	509.31 ± 2.6
533.15 K, 29155 kPa, Fluid (supercritical or subcritical phases), x1 = 0.8	466.47 ± 2.4
533.15 K, 29696 kPa, Fluid (supercritical or subcritical phases), x1 = 0.2	546.72 ± 2.8
533.15 K, 39686 kPa, Fluid (supercritical or subcritical phases), x1 = 0.8	495.86 ± 2.5
533.15 K, 44516 kPa, Fluid (supercritical or subcritical phases), x1 = 0.2	580.98 ± 2.9
543.15 K, 1370 kPa, Gas, x1 = 0.8	22.5 ± 0.07
543.15 K, 1634 kPa, Gas, x1 = 0.2	24.9 ± 0.08
543.15 K, 2088 kPa, Gas, x1 = 0.8	36.65 ± 0.11
543.15 K, 3070 kPa, Gas, x1 = 0.8	58.36 ± 0.18
543.15 K, 3378 kPa, Gas, x1 = 0.2	52.95 ± 0.16
543.15 K, 3671 kPa, Gas, x1 = 0.8	73.72 ± 0.23
543.15 K, 3909 kPa, Fluid (supercritical or subcritical phases), x1 = 0.9	83.3 ± 0.42
543.15 K, 4468 kPa, Gas, x1 = 0.2	91.32 ± 0.29
543.15 K, 4745 kPa, Fluid (supercritical or subcritical phases), x1 = 0.8	106.3 ± 0.54
543.15 K, 5031 kPa, Fluid (supercritical or subcritical phases), x1 = 0.2	114.24 ± 0.59
543.15 K, 5063 kPa, Fluid (supercritical or subcritical phases), x1 = 0.9	123.23 ± 0.63
543.15 K, 5339 kPa, Fluid (supercritical or subcritical phases), x1 = 0.9	133.99 ± 0.68
543.15 K, 5679 kPa, Fluid (supercritical or subcritical phases), x1 = 0.2	150.2 ± 0.77
543.15 K, 5755 kPa, Fluid (supercritical or subcritical phases), x1 = 0.8	140.17 ± 0.71
543.15 K, 6004 kPa, Fluid (supercritical or subcritical phases), x1 = 0.9	163.8 ± 0.83
543.15 K, 6026 kPa, Fluid (supercritical or subcritical phases), x1 = 0.2	175.44 ± 0.92
543.15 K, 6054 kPa, Fluid (supercritical or subcritical phases), x1 = 0.8	155.89 ± 0.8
543.15 K, 6187 kPa, Fluid (supercritical or subcritical phases), x1 = 0.2	189.45 ± 0.98
543.15 K, 6358 kPa, Fluid (supercritical or subcritical phases), x1 = 0.8	169.62 ± 0.87
543.15 K, 6471 kPa, Fluid (supercritical or subcritical phases), x1 = 0.2	219.88 ± 1.1
543.15 K, 6471 kPa, Fluid (supercritical or subcritical phases), x1 = 0.8	175.86 ± 0.89
543.15 K, 6570 kPa, Fluid (supercritical or subcritical phases), x1 = 0.9	189.27 ± 0.96
543.15 K, 6584 kPa, Fluid (supercritical or subcritical phases), x1 = 0.8	180.65 ± 0.92
543.15 K, 6716 kPa, Fluid (supercritical or subcritical phases), x1 = 0.2	245.23 ± 1.3
543.15 K, 6834 kPa, Fluid (supercritical or subcritical phases), x1 = 0.2	258.94 ± 1.3
543.15 K, 6836 kPa, Fluid (supercritical or subcritical phases), x1 = 0.8	192.97 ± 0.98
543.15 K, 6846 kPa, Fluid (supercritical or subcritical phases), x1 = 0.9	202.18 ± 1
543.15 K, 6875 kPa, Fluid (supercritical or subcritical phases), x1 = 0.2	262.64 ± 1.4
543.15 K, 6963 kPa, Fluid (supercritical or subcritical phases), x1 = 0.2	272.09 ± 1.4
543.15 K, 7154 kPa, Fluid (supercritical or subcritical phases), x1 = 0.2	290.25 ± 1.5
543.15 K, 7246 kPa, Fluid (supercritical or subcritical phases), x1 = 0.9	220.47 ± 1.1
543.15 K, 7269 kPa, Fluid (supercritical or subcritical phases), x1 = 0.8	213.64 ± 1.1
543.15 K, 7363 kPa, Fluid (supercritical or subcritical phases), x1 = 0.2	306.52 ± 1.6
543.15 K, 7405 kPa, Fluid (supercritical or subcritical phases), x1 = 0.8	219.4 ± 1.1
543.15 K, 7419 kPa, Fluid (supercritical or subcritical phases), x1 = 0.2	310.74 ± 1.6
543.15 K, 7511 kPa, Fluid (supercritical or subcritical phases), x1 = 0.2	318.45 ± 1.6
543.15 K, 7520 kPa, Fluid (supercritical or subcritical phases), x1 = 0.9	232.83 ± 1.2
543.15 K, 7591 kPa, Fluid (supercritical or subcritical phases), x1 = 0.9	236.29 ± 1.2
543.15 K, 7689 kPa, Fluid (supercritical or subcritical phases), x1 = 0.9	240.69 ± 1.2
543.15 K, 7747 kPa, Fluid (supercritical or subcritical phases), x1 = 0.8	234.47 ± 1.2
543.15 K, 7760 kPa, Fluid (supercritical or subcritical phases), x1 = 0.9	244 ± 1.2
543.15 K, 7964 kPa, Fluid (supercritical or subcritical phases), x1 = 0.2	340.91 ± 1.7
543.15 K, 7983 kPa, Fluid (supercritical or subcritical phases), x1 = 0.8	245.1 ± 1.2
543.15 K, 8042 kPa, Fluid (supercritical or subcritical phases), x1 = 0.2	343.7 ± 1.7
543.15 K, 8294 kPa, Fluid (supercritical or subcritical phases), x1 = 0.8	258.31 ± 1.3
543.15 K, 8708 kPa, Fluid (supercritical or subcritical phases), x1 = 0.8	272.26 ± 1.4
543.15 K, 8845 kPa, Fluid (supercritical or subcritical phases), x1 = 0.9	281.73 ± 1.4
